Source: patent US8252774B2, “5-azaindole bisphosphonates” (Isis Innovation Ltd., priority 2008, dated 2012)

Key:
[1] = HAP affinity: chromatographic profiling on hydroxyapatite column (FPLC); format: physicochemical; details: phosphate buffer gradient 1 mM up to 1000 mM, pH 6.8, determined in triplicate, longer retention = higher mineral affinity
[2] = target: T1, human farnesyl pyrophosphate synthase (FPPS) (Homo sapiens, UniProt P14324); experiment: FPPS inhibition in vitro; format: biochemical; details: recombinant human FPPS
T1 construct: made in house
T1 sequence (P14324 67-419 limits assumed): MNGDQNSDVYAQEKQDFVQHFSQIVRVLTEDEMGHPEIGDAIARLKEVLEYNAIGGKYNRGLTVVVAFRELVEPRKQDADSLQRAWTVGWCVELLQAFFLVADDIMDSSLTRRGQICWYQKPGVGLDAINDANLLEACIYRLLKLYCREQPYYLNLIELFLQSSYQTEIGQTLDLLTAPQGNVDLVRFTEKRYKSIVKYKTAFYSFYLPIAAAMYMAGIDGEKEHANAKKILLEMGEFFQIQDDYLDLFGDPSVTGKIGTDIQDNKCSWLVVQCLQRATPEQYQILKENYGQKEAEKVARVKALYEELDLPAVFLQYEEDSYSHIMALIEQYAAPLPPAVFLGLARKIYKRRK

SMILES	Retention time [1]	IC50 ([2]; after pre-incubation)	Ki ([2]; final inhibition constant)
O=P(O)(O)C(Cc1c[nH]c2ccncc12)P(=O)(O)O [5-azaindol-3-yl-ethyl-bisphosphonic acid]	6.3 min	6.6 nM	0.6 nM
O=P(O)(O)C(O)(Cc1cnc2ccccn12)P(=O)(O)O [Minodronate]	10.33 min		
O=P(O)(O)C(O)(Cc1cccnc1)P(=O)(O)O [Risedronate]	9.97 min		
O=P(O)(O)C(O)(Cn1ccnc1)P(=O)(O)O [Zoledronate]	12.53 min		
